In ChEMBL document CHEMBL4699534, “Optimizing PEG-Extended Apelin Analogues as Cardioprotective Drug Leads: Importance of the KFRR Motif and Aromatic Head Group for Improved Physiological Activity” (J Med Chem, 2020):
Non-standard residues stand in square brackets, D forms with d. Residues, ends and D or L forms follow the SMILES beside them. *: point of attachment. PEG10 = NCCOCCOCCOCCOCCOCCOCCOCCOCCOCCOCCC(=O)O; Phe(4-Br) = N[C@@H](Cc1ccc(Br)cc1)C(=O)O; PEG7 = NCCOCCOCCOCCOCCOCCOCCOCCC(=O)O; Fmoc = O=C(OCC1c2ccccc2-c2ccccc21)*; NMeR = CN[C@@H](CCCNC(=N)N)C(=O)O; αMeR = C[C@](N)(CCCNC(=N)N)C(=O)O; NMeL = CN[C@@H](CC(C)C)C(=O)O; Nle = CCCC[C@H](N)C(=O)O; Aib = CC(C)(N)C(=O)O

What was measured:
[1] = Half life in human plasma at 400 uM by HPLC analysis; format: ADME, cell-free
[2] = target: T1, Apelin receptor (Homo sapiens, UniProt P35414); assay: Activation of APJ receptor (unknown origin) expressed in Chem-5 cells assessed as stimulation of Ca2+ mobilization by Calcium 6-GF dye based fluorescence based assay; format: functional, cell-based
T1 sequence (P35414 whole entry): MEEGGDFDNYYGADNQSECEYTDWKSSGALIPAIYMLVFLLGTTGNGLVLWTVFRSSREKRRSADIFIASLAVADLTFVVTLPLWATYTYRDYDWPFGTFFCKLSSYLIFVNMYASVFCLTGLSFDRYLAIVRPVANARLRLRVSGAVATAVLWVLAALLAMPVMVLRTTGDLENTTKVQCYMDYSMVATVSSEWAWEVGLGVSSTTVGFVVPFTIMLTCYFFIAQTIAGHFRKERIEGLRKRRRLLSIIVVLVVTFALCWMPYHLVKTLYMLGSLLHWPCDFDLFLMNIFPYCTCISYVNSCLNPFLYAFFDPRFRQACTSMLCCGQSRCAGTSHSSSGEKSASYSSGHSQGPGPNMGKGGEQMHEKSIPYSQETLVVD

[3] = target: T2, Apelin receptor (Rattus norvegicus, UniProt Q9JHG3); assay: Displacement of [125I]-pyr-1-apelin-13 from EGFP-tagged wild-type rat apelin receptor expressed in CHO cell membranes by gamma counting method; design: species or system Cell membrane
T2 sequence (Q9JHG3 whole entry): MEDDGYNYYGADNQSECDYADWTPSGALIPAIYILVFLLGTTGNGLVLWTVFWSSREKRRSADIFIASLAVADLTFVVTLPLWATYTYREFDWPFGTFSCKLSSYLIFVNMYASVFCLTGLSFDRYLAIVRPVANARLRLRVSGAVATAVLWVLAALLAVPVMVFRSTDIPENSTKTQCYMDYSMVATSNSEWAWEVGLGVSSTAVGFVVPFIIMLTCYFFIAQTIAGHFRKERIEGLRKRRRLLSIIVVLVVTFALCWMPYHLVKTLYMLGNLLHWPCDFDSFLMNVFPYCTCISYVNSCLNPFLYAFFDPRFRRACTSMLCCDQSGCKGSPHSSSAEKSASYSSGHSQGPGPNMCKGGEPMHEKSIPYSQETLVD

[4] = test system: Mus musculus; assay: Cardioprotective activity in C57BL/6 mouse assessed as reduction in mean arterial blood pressure at 1.4 uM/kg, iv measured after 15 mins relative to control; format: functional; settings: 0.25 h

half-life at 400 µM [1] [h] | EC50 [2] [nM] | IC50 [3] [nM] | SMILES | Activity [4] [mmHg]
17.2 | 4.9 | 2.4 | CCCC[C@H](NC(=O)[C@@H]1CCCN1C(=O)CNC(=O)[C@H](CCCCN)NC(=O)[C@H](Cc1c[nH]cn1)NC(=O)[C@H](CO)NC(=O)[C@H](CC(C)C)N(C)C(=O)[C@H](CCCNC(=N)N)NC(=O)[C@@H]1CCCN1C(=O)[C@H](CCCNC(=N)N)NC(=O)[C@H](CCC(N)=O)NC(=O)[C@H](CCCNC(=N)N)NC(=O)[C@H](CCCNC(=N)N)NC(=O)[C@H](Cc1ccccc1)NC(=O)[C@H](CCCCN)NC(=O)CCOCCOCCOCCOCCOCCOCCOCCOCCOCCOCCNC(=O)OCC1c2ccccc2-c2ccccc21)C(=O)NC(C)(C)C(=O)N[C@@H](Cc1ccc(Br)cc1)C(=O)O ({Fmoc-PEG10}-KFRRQRPR[NMeL]SHKGP[Nle][Aib][Phe(4-Br)]-OH) | 28
7.1 | 2.4 | 1 | CCCC[C@H](NC(=O)[C@@H]1CCCN1C(=O)CNC(=O)[C@H](CCCCN)NC(=O)[C@H](Cc1c[nH]cn1)NC(=O)[C@H](CO)NC(=O)[C@H](CC(C)C)N(C)C(=O)[C@H](CCCNC(=N)N)NC(=O)[C@@H]1CCCN1C(=O)[C@H](CCCNC(=N)N)NC(=O)[C@H](CCC(N)=O)NC(=O)[C@](C)(CCCNC(=N)N)NC(=O)[C@H](CCCNC(=N)N)NC(=O)[C@H](Cc1ccccc1)NC(=O)[C@@H](N)CCCCN)C(=O)NC(C)(C)C(=O)N[C@@H](Cc1ccc(Br)cc1)C(=O)O (H-KFR[αMeR]QRPR[NMeL]SHKGP[Nle][Aib][Phe(4-Br)]-OH) | 18
5.2 | 3.47 | 1.51 | CCCC[C@H](NC(=O)[C@@H]1CCCN1C(=O)CNC(=O)[C@H](CCCCN)NC(=O)[C@H](Cc1c[nH]cn1)NC(=O)[C@H](CO)NC(=O)[C@H](CC(C)C)N(C)C(=O)[C@H](CCCNC(=N)N)NC(=O)[C@@H]1CCCN1C(=O)[C@H](CCCNC(=N)N)NC(=O)[C@H](CCC(N)=O)NC(=O)[C@H](CCCNC(=N)N)N(C)C(=O)[C@H](CCCNC(=N)N)NC(=O)[C@H](Cc1ccccc1)NC(=O)[C@@H](N)CCCCN)C(=O)NC(C)(C)C(=O)N[C@@H](Cc1ccc(Br)cc1)C(=O)O (H-KFR[NMeR]QRPR[NMeL]SHKGP[Nle][Aib][Phe(4-Br)]-OH) | 14
6.4 | 25.7 | 1.7 | CCCC[C@H](NC(=O)[C@@H]1CCCN1C(=O)CNC(=O)[C@H](CCCCN)NC(=O)[C@H](Cc1c[nH]cn1)NC(=O)[C@H](CO)NC(=O)[C@H](CC(C)C)N(C)C(=O)[C@H](CCCNC(=N)N)NC(=O)[C@@H]1CCCN1C(=O)[C@H](CCCNC(=N)N)NC(=O)[C@H](CCC(N)=O)NC(=O)[C@H](CCCNC(=N)N)NC(=O)[C@H](CCCNC(=N)N)NC(=O)[C@H](Cc1ccccc1)NC(=O)[C@H](CCCCN)NC(=O)CCOCCOCCOCCOCCOCCOCCOCCNC(=O)[C@@H](N)Cc1ccccc1)C(=O)NC(C)(C)C(=O)N[C@@H](Cc1ccc(Br)cc1)C(=O)O (H-F[PEG7]KFRRQRPR[NMeL]SHKGP[Nle][Aib][Phe(4-Br)]-OH) | 24
8.6 | > 200 | 1.91 | CCCC[C@H](NC(=O)[C@@H]1CCCN1C(=O)CNC(=O)[C@H](CCCCN)NC(=O)[C@H](Cc1c[nH]cn1)NC(=O)[C@H](CO)NC(=O)[C@H](CC(C)C)N(C)C(=O)[C@H](CCCNC(=N)N)NC(=O)[C@@H]1CCCN1C(=O)[C@H](CCCNC(=N)N)NC(=O)[C@H](CCC(N)=O)NC(=O)CCOCCOCCOCCOCCOCCOCCOCCOCCOCCOCCNC(=O)OCC1c2ccccc2-c2ccccc21)C(=O)NC(C)(C)C(=O)N[C@@H](Cc1ccc(Br)cc1)C(=O)O | 1
6.9 | 49 | 3.02 | CCCC[C@H](NC(=O)[C@@H]1CCCN1C(=O)CNC(=O)[C@H](CCCCN)NC(=O)[C@H](Cc1c[nH]cn1)NC(=O)[C@H](CO)NC(=O)[C@H](CC(C)C)N(C)C(=O)[C@H](CCCNC(=N)N)NC(=O)[C@@H]1CCCN1C(=O)[C@H](CCCNC(=N)N)NC(=O)[C@H](CCC(N)=O)NC(=O)CCOCCOCCOCCOCCOCCOCCNC(=O)OCC1c2ccccc2-c2ccccc21)C(=O)NC(C)(C)C(=O)N[C@@H](Cc1ccc(Br)cc1)C(=O)O | 9
